The source of these data is US5821046A, “RNA oligonucleotides that bind HIV tat protein” (RiboTargets Holdings PLC, priority 1990, dated 1998).

“Also recorded” adds a separate entry of the source. Where two headings read alike, the source gives them in different places. [4sT] = 4-thio-2'-deoxythymidine; [5BrU] = 5-bromo-2'-deoxyuridine; d = 2'-deoxy (DNA); r = 2'-OH (RNA)

In data set [1] the test system is tat protein. Description: competition filter binding assay with chemically synthesized RNA (Table 4). On the set-up: species or system HIV-1. The note with it: for IC50: 40 nM tat, read-out: D1/2; for competition for tat binding compared with unmodified RNA: competition filter binding, FIGS. 19, 21-24, 26; for drop in D1/2 compared with unmodified duplex: modified 17-mer + 14-mer duplex. On the procedure:
Competition binding reactions (0.5ml) in TK buffer (50 mM Tris.HCl(pH7.9 at 0.5M and 22° G), 20 mM KCl ) included 10nM ^32 p labeled 59-mer (ca. 20,000 cpm) , 40nM tat protein, 5 ug/ml calf thymus DNA, 2 ug/ml yeast tRNA, 40 units of RNAsin (Promega) and varying concentrations (0-300 nM) of unlabeled competitor RNA (59-mer [SEQ ID NO: 1; ], 29-mer [SEQ ID NO: 12] or preannealed (slow cooled from 90° C.) 14-mer [SEQ ID NO: 14; nucleotides 2-15] and 17-mer [SEQ ID NO: 13; nucleotides 1- 17]). Binding was allowed to take place for 2-15 minutes on ice and each reaction was filtered through a twice prewashed (0.6 ml of ice-cold TK buffer) Millipore GS filter (2.5 cm disks, 0.22 um pore) and the filter washed with TK buffer (0.6 ml). Dried filters were counted by liquid scintillation. Results were plotted on a graph (FIG. 19) showing counts retained on the filter versus the concentration of competitor RNA added.
Competition binding reactions (0.5 ml) in TK buffer included 10 nM duplex formed from ^32 P-labeled and unlabeled 29-mer (ca. 20,000 cpm) or 10 nM duplex formed from ^32 P-labeled and unlabeled 17-mer annealed to unlabeled 14-mer, 40 nM tat protein, 5 ug/ml calf thymus DNA, 2 ug/ml yeast tRNA and varying concentrations (0-120 nM) of unlabeled competitor RNA (29-mer or modified 29-mer (FIG. 21), or 17-mer +14-mer duplex or modified 7-mer +14-mer duplex (22, 23 and 24) and were carried out as described above.
Competition binding reactions (0-5 ml) in TK buffer included 10 nM duplex formed from ^32 P-labelled (ca. 20,000 cpm) and unlabelled 18-mer [SEQ ID NO: 13] annealed to unlabelled 15-mer [SEQ ID NO: 14], 40 nM tat protein, 5 ug/ml calf thymus DNA, 2 ug/ml yeast TRNA and varying concentrations (0-120 nM) of unlabelled competitor RNA (59-mer [SEQ ID NO: 1] or 18-mer [SEQ ID NO: 13]+15-mer [SEQ ID NO: 14] duplex, or modified 18-mer [SEQ ID NO: […]

Data set [2] deals with HIV-1 Tat (Human immunodeficiency virus 1, UniProt P04608 P04608:1-86). Description: competition; D1/2; wild type 90 nM.
Where [3] appears, read: 32P-end-labelled 29-mer 10 nM, competitor 0-120 nM.
Where [4] appears, read: relative to 29-mer, 32P-end-labelled 29-mer 10 nM.
Where [5] appears, read: 32P-end labelled 18-mer annealed to 15-mer.
Where [6] appears, read: 32P-end labelled 18-mer annealed to 15-mer 10 nM, competitor 0-120 nM.
[7] abbreviates: relative to 14 +17 duplex, 32P-end labelled 18-mer annealed to 15-mer.
[8] abbreviates: BrdU series, relative to 14 +17 duplex.
[9] abbreviates: BrdU series, 32P-end-labelled 29-mer 10 nM, competitor 0-120 nM.
Where [10] appears, read: 32P-end-labeled 17-mer annealed to 14-mer 10 nM, competitor 0-120 nM (dT series).
Where [11] appears, read: relative to 14 +17 duplex, 32P-end-labeled 17-mer annealed to 14-mer.
Setting [12] is: 32P-labeled 59-mer transcript 10 nM.

As to “2'-OmeU-23: chemically synthesized 29-mer where U23 is replaced by 2'-O-methyluridine (GCCAGANUUGAGCCUGGGAGCUCUCUGGC; 2'-O-methyluridine at U23, chemistry not fully specified)”, the IC50 in data set [1] (setting [3]) stood at 50 nM. The “competition for tat binding compared with unmodified RNA” value in data set [1] (listed as SEQ ID NO: 16) was “competed as well as as unmodified 29-mer; also recorded: competes for tat binding as well as unmodified 29-mer”. In addition, in data set [1] (setting [4]), the “Krel (29 or 14 +17)” value was determined as 1.2.

With “4-thioT-24: 15-mer annealed to 18-mer where U24 is replaced by 4-thio-2'-deoxythymidine (AGCCAGAUTUGAGCAGCU; sugars from the 5' end r8 d1 r9, [4sT] at 9, backbone not given here; annealed to 15-mer strand)”, in data set [1] (setting [5]), the “Krel (59-mer)” value came out at 0.7. Besides, the IC50 in data set [1] (setting [6]) was 25 nM. Also, the “competition for tat binding compared with unmodified RNA” value in data set [1] is “competes for binding better than unsubstituted duplex”. Also, in data set [1] (setting [7]), the “Krel (29 or 14 +17)” value amounted to 2.0.

Regarding “4-thioT-25: 15-mer annealed to 18-mer where U25 is replaced by 4-thio-2'-deoxythymidine (AGCCAGAUUTGAGCAGCU; DNA at 10, [4sT] at 10, other sugars and backbone not given here; annealed to a 15-mer strand, further chemistry not fully specified)”, the “Krel (59-mer)” value in data set [1] (setting [5]) was determined as 1.5. The IC50 in data set [1] (setting [6]) amounted to 12 nM. Also, the “competition for tat binding compared with unmodified RNA” value in data set [1] (listed as SEQ ID NO: 25) is reported as “competes for binding better than unsubstituted duplex; also recorded: competes as well as unmodified 59-mer”. Moreover, the “Krel (29 or 14 +17)” value in data set [1] (setting [7]) is 4.2.

For “15 +18: duplex of unmodified 18-mer [SEQ ID NO: 13] and 15-mer [SEQ ID NO: 14] containing a U-rich bulge (chain 1 AGCCAGAUUUGAGCAGCU; chain 2 AGCUGCUCUCUGGCU; RNA, phosphodiester; duplex with U-rich bulge)”, the “Krel (59-mer)” value in data set [1] (setting [5]) is on record as 0.3. Besides, the IC50 in data set [1] (setting [6]) amounted to 65 nM. Further, the “competition for tat binding compared with unmodified RNA” value in data set [1] was “competed as well as 17-mer”. Further, the “Krel (29 or 14 +17)” value in data set [1] (setting [7]) was determined as 0.8.

“BrdU-23: 14-mer annealed to 17-mer where U23 is replaced by 5-bromo-2'-deoxyuridine (AGCCAGAUUUGAGCAGC; DNA at 8, [5BrU] at 8, other sugars and backbone not given here; annealed to a 14-mer strand, further chemistry not fully specified)”: the “Krel (29 or 14 +17)” value in data set [1] (setting [8]) came out at 0.6. For the same molecule, the IC50 in data set [1] (setting [9]) turned out to be 70 nM. In data set [1], the “competition for tat binding compared with unmodified RNA” value was “competes for tat binding less well” and the “drop in D1/2 compared with unmodified duplex” value came out at 2 fold.

Consider “BrdU-24: 14-mer annealed to 17-mer where U24 is replaced by 5-bromo-2'-deoxyuridine (AGCCAGAUUUGAGCAGC; DNA at 9, [5BrU] at 9, other sugars and backbone not given here; annealed to a 14-mer strand, further chemistry not fully specified)”, for which, in data set [1] (setting [8]), the “Krel (29 or 14 +17)” value worked out at 1.0. Also, the IC50 in data set [1] (setting [9]) came to 45 nM. The “competition for tat binding compared with unmodified RNA” value in data set [1] was “no effect on competition”; in data set [1] (listed as SEQ ID NO: 21) it was “competes as well compared to unsubstituted duplex”.

Regarding “BrdU-25: 14-mer annealed to 17-mer where U25 is replaced by 5-bromo-2'-deoxyuridine (AGCCAGAUUUGAGCAGC; sugars from the 5' end r9 d1 r7, [5BrU] at 10, backbone not given here; annealed to 14-mer strand)”, the “Krel (29 or 14 +17)” value in data set [1] (setting [8]) is recorded as 1.1. Moreover, in data set [1] (setting [9]), the IC50 turned out to be 35 nM. Moreover, the “competition for tat binding compared with unmodified RNA” value in data set [1] was “no effect on competition”; in data set [1] (listed as SEQ ID NO: 22), “competes for tat binding as well compared to unsubstituted duplex”.

On to “dT-23: 14-mer annealed to 17-mer where U23 is replaced by 2'-deoxythymidine (AGCCAGANUUGAGCAGC; 2'-deoxythymidine at 23, annealed 14-mer without entry, chemistry not fully specified)”, for which the IC50 in data set [1] (setting [10]) was determined as 35 nM. For the same molecule, the “competition for tat binding compared with unmodified RNA” value in data set [1] is reported as “no effect on competition”; in data set [1] (listed as SEQ ID NO: 17) it was “competes for tat binding as well as unmodified duplex”. The “Krel (29 or 14 +17)” value in data set [1] (setting [11]) worked out at 1.1.

For “dT-24: 14-mer annealed to 17-mer where U24 is replaced by 2'-deoxythymidine (AGCCAGAUNUGAGCAGC; 2'-deoxythymidine at 24, annealed 14-mer without entry, chemistry not fully specified)”, in data set [1] (setting [10]), the IC50 was 30 nM. Further, the results for the “competition for tat binding compared with unmodified RNA” value in data set [1] and in data set [1] (listed as SEQ ID NO: 18) were “no effect on competition” and “competes for tat binding as well as unmodified duplex”, respectively. Besides, in data set [1] (setting [11]), the “Krel (29 or 14 +17)” value amounted to 1.2.

Turning to “dT-25: 14-mer annealed to 17-mer where U25 is replaced by 2'-deoxythymidine (AGCCAGAUUNGAGCAGC; 2'-deoxythymidine at 25, annealed 14-mer without entry, chemistry not fully specified)”, the IC50 in data set [1] (setting [10]) is 90 nM. Further, in data set [1], the “competition for tat binding compared with unmodified RNA” value was “competes less well compared to unmodified duplex” and the “drop in D1/2 compared with unmodified duplex” value is 2-3 fold. Further, the “Krel (29 or 14 +17)” value in data set [1] (setting [11]) is on record as 0.4.

As for “dU-23: chemically synthesized 29-mer where U23 is replaced by 2'-deoxyuridine (GCCAGANUUGAGCCUGGGAGCUCUCUGGC; 2'-deoxyuridine at 23, chemistry not fully specified)”, in data set [1] (setting [3]), the IC50 is 55 nM. In addition, the “competition for tat binding compared with unmodified RNA” value in data set [1] (listed as SEQ ID NO: 15) is recorded as “competed as well as as unmodified 29-mer; also recorded: competes for tat binding as well as unmodified 29-mer”. Moreover, in data set [1] (setting [4]), the “Krel (29 or 14 +17)” value came to 1.1.

For “r(GCCAGAUUUGAGCCUGGGAGCUCUCUGGC) (RNA, backbone not given here) [29-mer, chemically synthesized 29-mer, top part of TAR including loop and U-rich bulge]”, the IC50 in data set [1] (setting [3]) came out at 60 nM. Also, in data set [1] (setting [12]), the “Krel (59-mer)” value was 0.4 and the “increase in D1/2 compared with 59-mer” value is 2-3 fold. Also, in data set [1] (32P-labeled 59-mer transcript 10 nM, competitor 0-300 nM), the IC50 stood at 100 nM. Further, in data set [1], the “competition for tat binding compared with unmodified RNA” value is “competes for binding to tat almost as well as a 59-mer RNA transcript”. Also, in data set [1] (setting [4]), the “Krel (29 or 14 +17)” value was determined as 1.0.

B1: TAR bulge U (ssRNA)
RNA: GGGUCUCUCUGGUUAGACCAGAUGAGCCUGGGAGCUCUCUGGCUAACUAGGGAACCC
modifications: [23-25]
For the molecule B1, the IC50 in data set [2] was determined as 673 nM.

B2: TAR bulge CUU (ssRNA)
RNA: GGGUCUCUCUGGUUAGACCAGACUUGAGCCUGGGAGCUCUCUGGCUAACUAGGGAACCC
modifications: [23]
For the molecule B2, the IC50 in data set [2] stood at 630 nM.

B3: TAR bulge CCU (ssRNA)
RNA: GGGUCUCUCUGGUUAGACCAGACCUGAGCCUGGGAGCUCUCUGGCUAACUAGGGAACCC
modifications: [23,24]
B3 returned an IC50 in data set [2] of 1330 nM.
